Experimental findings from patent US20210330606A1, “GLUCOSE CONSUMPTION ACCELERATOR AND GLYCOLYSIS ACCELERATOR” (SHINKO SANGYO Co., Ltd., priority 2018, published 2021) are described below.

Test [1] concerns Rat-derived fibroblasts (Py-3Y1-S2, subculture strain). Kind of test: Glucose consumption of rat-derived fibroblasts (relative value, control = 100). Format: cell-based. An excerpt: As drugs, 2-amino-1-cyclohexylethanol (Matrix Biochemicals), 2-aminoethanol (Tokyo Chemical Industry Co., Ltd.), 1-amino-2-propanol (Wako Pure Chemical Industries, Ltd.), 2-amino-1-phenylethanol (Tokyo Chemical Industry Co., Ltd.), 1, 3-bis[tris(hydroxymethyl)-methylamino]propane (Tokyo Chemical Industry Co., Ltd.), N-cyclohexylethanolamine (Tokyo Chemical Industry Co., Ltd.), diethanolamine (Wako Pure Chemical Industries, Ltd.), diethylamine (Wako Pure Chemical Industries, Ltd.), dipropylamine (Tokyo Chemical Industry Co., Ltd.), HEPES sodium salt (MP Biomedicals), metoprolol tartrate (Tokyo Chemical Industry Co., Ltd.), morpholine (Wako Pure Chemical Co., Ltd.), octopamine (MP Biomedicals), propylamine (Tokyo Chemical Industry Co., Ltd.), triethylamine (Wako Pure Chemical Co., Ltd.), timolol maleate (Wako Pure Chemical Industries, Ltd.) and tris(hydroxymethyl)aminomethane (Wako Pure Chemical Industries, Ltd.) were used. Each drug was dissolved in distilled water to prepare a sample.
In the culture, DMEM (Nissui Pharmaceutical Co., Ltd.) was used as a culture medium. […] As a control of the drug, the culture was performed in the same manner except that distilled water to which the drug was not added was added to the culture solution instead of the sample.
After the addition of the drug, the glucose concentration of each of the culture solutions was measured immediately after the start of the culture and after the completion of the culture. The glucose concentration was measured using a glucose assay kit (Waco). Then, the glucose concentration after the completion of the culture was divided by the glucose concentration immediately after the start of the culture (5.6 mmol per liter) to calculate the glucose consumption.
The fibroblasts were cultured. […] Streptozotocin, alloxan, and nicotinamide are drugs all known to produce symptoms of diabetes when administered to the body.
Next, samples of streptozotocin, alloxan, and nicotinamide plus 2-amino-1-phenylethanol (2-A-1-P) were prepared in the same manner. The concentration of 2-A-1-P was 1 mg/ml. The relative value of the glucose consumption was calculated in the same manner.
The fibroblasts were cultured.
The concentration of 2-A-1-P was 0.5 mg/ml. The relative value of the glucose consumption was calculated in the same manner.

Test [2] relates to rat-derived liver cancer cells (Ry121B, subculture line). Kind of test: Lactate concentration in culture solution of liver cancer cells (relative value, control = 100). The settings on record: drug 1 mg/ml, control = 100 (FIG. 7B). It is filed as cell-based. The method, then:
(§1) First, samples of 2-amino-1-cyclohexylethanol and 2-amino-1-phenylethanol were prepared in the same manner as in Example 1. The fibroblasts and the liver cancer cells were cultured under the same conditions as in Examples 1 and 5. […] As a control, the culture was performed in the same manner except that distilled water to which the drug was not added was added to the culture solution instead of the sample.
(§2) After the addition of the drug, the culture solution was diluted so that the weight ratio of the culture solution to distilled water was 1:19, and the lactate concentration of the diluted culture solution was measured. The lactate concentration was measured using a lactate assay kit (product name: Lactate Assay Kit-WST, product of Dojindo Laboratories).

Test [3] relates to Py-3Y1-S2, TE-13, VERO and HepG2 cells. Kind of test: Lactate concentration after 2 to 3 days culture, lactate metabolism, mean over four cell types (Example 9). It is filed as cell-based, rat, human, African green monkey. The method, then: as §2
First, samples of 2-amino-1-cyclohexylethanol (2-amino-1-cyclohexyl EOH) and 2-amino-1-phenylethanol (2-amino-1-phenyl EOH) were prepared in the same manner as in Example 1. Four types of cells were used as in Example 8, and each of the cells was cultured under the same conditions as in Example 1. […] Thereafter, the culture time was lengthened to 2 to 3 days (48 to 72 hours) compared to Example 8. As a control 1, the culture was performed in the same manner except that distilled water to which the drug was not added was added to the culture solution instead of the sample. As a control 2, the culture was performed in the same manner as the […] except that a sample of biguanide prepared in the same manner as in Example 1 was added to the culture solution instead of the sample. Then, the lactate concentration in each sample was measured in the same manner as in Example 6. Each of the four cells was used for a total of four experiments.

Test [4] deals with Rat-derived fibroblasts (Py-3Y1-S2, subculture strain). Kind of test: Lactate concentration in culture solution of fibroblasts (relative value, control = 100). Format: cell-based. The following applies: drug 1 mg/ml, control = 100 (FIG. 7A). How it is done: as §1, §2
Test [5] deals with Py-3Y1-S2, TE-13, VERO and HepG2 cells. Kind of test: Lactate concentration after 24 to 48 hours culture, mean over four cell types (Example 8). Format: cell-based, rat, human, African green monkey. The settings on record: drug 0.5 mg/ml, mean of five experiments in four cell types. The method, then:
as §2
First, a sample of 2-amino-1-cyclohexylethanol (2-amino-1-cyclohexyl EOH) was prepared in the same manner as in Example 1. In addition to the rat-derived fibroblasts (Py-3Y1-S2, subculture line), human-derived esophageal cancer cells (TE-13, subculture line), African green monkey-derived kidney epithelial cells (VERO, subculture line), and human-derived hepatocellular cancer cells (HepG2, subculture line) were used and cultured under the same conditions as in Example 1. […] Thereafter, the culture solutions were further cultured for 24 to 48 hours. The culture time after the addition of the sample was set to the same condition for each cell. As a control 1, the culture was performed in the same manner except that distilled water to which the drug was not added was added to the culture solution instead of the sample. […] Then, the lactate concentration in each sample was measured in the same manner as in Example 6. […]

Test [6] concerns rat-derived liver cancer cells (Ry121B, subculture line). The following applies: drug 1 mg/ml, control = 100.
[7] abbreviates: fibroblasts, drug 0.5 mg/ml, 12 to 24 hours, control = 100 (FIG. 1A, 2A).
Where [8] appears, read: fibroblasts, drug 1 mg/ml, 12 to 24 hours, control = 100 (FIG. 1B, 2B).
Where [9] appears, read: Example 3, fibroblasts, drug alone 1 mg/ml, control = 100.

On to `COCCc1ccc(OCC(O)CNC(C)C)cc1.COCCc1ccc(OCC(O)CNC(C)C)cc1.O=C(O)C(O)C(O)C(=O)O` (stereo not shown) [metoprolol tartrate, reference compound], for which the “relative value of glucose consumption” value in test [1] (setting [7]) and in test [1] (setting [8]) was “significantly increased glucose consumption” in each case.

Regarding `CCN(CC)CC` [triethylamine], the “relative value of glucose consumption” value in test [1] (setting [7]) and in test [1] (setting [8]) was “significantly increased glucose consumption” in each case.

With `C1COCCN1` [morpholine], the “relative value of glucose consumption” value in test [1] (setting [7]) and in test [1] (setting [8]) was “significantly increased glucose consumption” throughout.

For `OCCNCCO` [diethanolamine], the “relative value of glucose consumption” value in test [1] (setting [7]) and in test [1] (setting [8]) was “significantly increased glucose consumption” in each case.

On to `NCCO` [2-aminoethanol], for which the “relative value of glucose consumption” value in test [1] (setting [7]) and in test [1] (setting [8]) was “significantly increased glucose consumption” in each case.

In the case of `O=C1NC(=O)C(=O)C(=O)N1` [alloxan, reference compound], the “relative value of glucose consumption” value in test [1] (setting [9]) was “about 70”.

Regarding `CCCN` [propylamine], the “relative value of glucose consumption” value in test [1] (setting [7]) and in test [1] (setting [8]) was “significantly increased glucose consumption” throughout.

On to `OCCNC1CCCCC1` [N-cyclohexylethanolamine], for which the “relative value of glucose consumption” value in test [1] (setting [7]) and in test [1] (setting [8]) was “significantly increased glucose consumption” in each case.

For `CC(O)CN` (stereo not shown) [1-amino-2-propanol], in test [1] (setting [7]), the “relative value of glucose consumption” value is recorded as “significantly increased glucose consumption”.

With tris(hydroxymethyl)aminomethane, the “relative value of glucose consumption” value in test [1] (setting [7]) and in test [1] (setting [8]) was “significantly increased glucose consumption” throughout.

For `NC(=O)c1cccnc1` [nicotinamide, reference compound], the “relative value of glucose consumption” value in test [1] (setting [9]) is given as “about 85”.

With `OCC(CO)(CO)NCCCNC(CO)(CO)CO` [1,3-bis[tris(hydroxymethyl)methylamino]propane], the “relative value of glucose consumption” value in test [1] (setting [8]) was “significantly increased glucose consumption”.

For the compound `NCC(O)C1CCCCC1` (stereo not shown) [2-amino-1-cyclohexylethanol], the “relative value of lactate concentration” value was “about 140” in test [2] and “about 145” in test [4]. Moreover, the “lactate concentration in the culture solution compared to control 1” value in test [3] (drug 0.5 mg/ml, 2 to 3 days (48 to 72 hours) culture, mean of four experiments) is reported as “equivalent to that of control 1”. For the same compound, the “relative value of glucose consumption” value in test [1] (Example 2, fibroblasts, drug 0.1 mg/ml, control = 100) is reported as “about 120”; in test [1] (Example 2, fibroblasts, drug 0.25 mg/ml, control = 100), “about 130”; in test [1] (Example 2, fibroblasts, drug 0.5 mg/ml, control = 100), “about 150”; in test [1] (setting [7]), “significantly increased glucose consumption”; in test [1] (setting [8]), “significantly increased glucose consumption”; in test [6] it was “about 145”. In test [5], the “lactate concentration in the culture solution” value was 9.35 mmol/L.

For the compound `CCNCC` [diethylamine], the “relative value of glucose consumption” value in test [1] (setting [7]) and in test [1] (setting [8]) was “significantly increased glucose consumption” in each case.

Turning to `O=S(=O)([O-])CCN1CCN(CCO)CC1.[Na+]` [HEPES sodium salt], the “relative value of glucose consumption” value in test [1] (setting [7]) and in test [1] (setting [8]) was “significantly increased glucose consumption” throughout.

Take `CN(N=O)C(=O)N[C@H]1C(O)O[C@H](CO)[C@@H](O)[C@@H]1O` (mixture of isomers) [streptozotocin, reference compound]: the “relative value of glucose consumption” value in test [1] (setting [9]) is reported as “about 90”.

As to `[O]=[V](=[O])[O][V](=[O])=[O]` [V2O5, reference compound], the “relative value of glucose consumption” value in test [1] (Example 4, fibroblasts, drug alone, vanadium final concentration 1.0 mg/ml (V2O5 not printed separately)) is reported as “about 115”.

`N=C(N)NC(=N)N` [biguanide, reference compound]: the “lactate concentration relative to Control 1” value in test [3] (2 to 3 days culture after addition of biguanide, P<0.05) is listed as “about 3.5 times”. The “lactate concentration in the culture solution” value in test [5] was “increased the lactate concentration”.

concanavalin A [reference compound]: the “relative value of glucose consumption” value in test [1] (Example 4, fibroblasts, ConA alone 100 μg/ml) was “about 120”.

As to `CC(C)(C)NC[C@H](O)COc1nsnc1N1CCOCC1.O=C(O)/C=C\C(=O)O` [timolol maleate, reference compound], the “relative value of glucose consumption” value in test [1] (setting [7]) and in test [1] (setting [8]) was “significantly increased glucose consumption” each time.

`CCCNCCC` [dipropylamine]: the “relative value of glucose consumption” value in test [1] (setting [7]) and in test [1] (setting [8]) was “significantly increased glucose consumption” in each case.
